System: thiolated MG binding aptamer (RNA, aptamer) GGAUCCCGACUGGCGAGAGCCAGGUAACGAAUGGAUCC
Test: cyclic voltammetry / DPV of captured MG on aptamer electrode; EIS
Settings: Na+ / K+ (Na2HPO4/KH2PO4 buffer); phosphate buffer pH 7.4, room temperature, 2 h; 1.0 and 10 μM MG; immobilised aptamer

## CN(C)c1ccc(C(=C2C=CC(=[N+](C)C)C=C2)c2ccccc2)cc1
  binding: yes

From article PMC6409966 (2019)
